Measurements: article PMC10897476, “Pyridylpiperazine efflux pump inhibitor boosts in vivo antibiotic efficacy against K. pneumoniae” (EMBO Molecular Medicine, 2023)
Marks after values point to notes of the source that are not given here.

Experiments:
[1] = system: K. pneumoniae ATCC 43816 (WT); assay: MIC of antibiotics with and without EPI (REMA), WT strain; assay type: cell-based, Klebsiella pneumoniae; conditions: K. pneumoniae WT
Experimental: Overnight cultures were diluted to an OD600 = 0.001 in CAMHB followed by addition of efflux pump inhibitors (EPIs) at a final concentration of 100 µM. […] Plates were incubated at 37 °C for up to 20 h. […] MICs were defined as the concentration that prevented 90% of resazurin turnover compared to the non-treated bacteria.

[2] = target: K. pneumoniae AcrB (Klebsiella pneumoniae, UniProt A0A332Z023); assay: Berberine accumulation assay, K. pneumoniae WT; assay type: cell-based; conditions: read-out: apparent Ki, concentration-dependent stimulation of berberine uptake, 200 µM berberine
Experimental: The accumulation of the berberine AcrB substrate in K. pneumoniae WT and AcrB-V448E cells in the presence of different BDM91288 (5) concentrations was determined as described (Plé et al, [2022]) with minor modifications. Briefly, an overnight LB pre-culture of each strain (0.6 mL) was used to inoculate a 30-mL LB culture and incubated for around 2 h (37 °C, 150 rpm) to reach OD600 around 1. Cells were harvested by centrifugation (4000 × g, 10 min at 4 °C), washed three times with 10 mL of ice-cold buffer (50 mM potassium-phosphate pH 7.5 and 1 mM MgSO4) and resuspended into the same buffer containing also 0.2% glucose to an OD600 of 2. The bacterial suspension was then allowed to reach room temperature, after which 200 µL was dispensed to wells of an assay ready 96-black-well plate (Greiner Bio-One) containing 2 µL of 100× concentrated serial dilution of BDM91288 (5). To initiate the uptake experiment, 2 µL of berberine 20 mM (final concentration of 200 µM) was added to each well and transferred to a microplate fluorescence plate reader (Spark, Tecan), where the kinetics of berberine uptake was monitored for 20 min at 30 °C (excitation 365 nm/emission 540 nm). Experiments were performed 4 independent times, and berberine uptake was calculated for all conditions as the rate of fluorescence increase over the first 10 min and expressed as RFU/min (mean ± SD). […]

[3] = in vitro; assay type: cell-based; conditions: mouse, BALB/3T3 cells, read-out: in vitro cytotoxicity CC50
Experimental: BALB/3T3 cells (CCL-163 from ATCC) were not authenticated. The cell lines were tested negative for mycoplasma contamination (kit mycoalert LONZA). The cytotoxicity of compound BDM91288 (5) was determined on BALB/3T3 cells using live imaging following both Hoechst 33342 and propidium iodide staining. Propidium iodide is a not membrane-permeable DNA stain, allowing to differentiate necroptic, apoptotic and healthy cells based on loss of membrane integrity. […] Final medium volume was 70 µL. 24 h after compounds addition, live imaging was performed using the automated confocal microscope In Cell Analyzer 6000 (GE Healthcare). The cytotoxicity was defined as the percent of cells labelled by propidium iodide in the total cell population (Hoechst labelled cells) using Columbus software (Perkin Elmer). Compounds were tested in triplicate. Carfilzomib (499, 249, […], 61, and 30.6 nM) was used as a positive control in this assay.

K. pneumoniae AcrB, sequence (A0A332Z023 entry or part of it): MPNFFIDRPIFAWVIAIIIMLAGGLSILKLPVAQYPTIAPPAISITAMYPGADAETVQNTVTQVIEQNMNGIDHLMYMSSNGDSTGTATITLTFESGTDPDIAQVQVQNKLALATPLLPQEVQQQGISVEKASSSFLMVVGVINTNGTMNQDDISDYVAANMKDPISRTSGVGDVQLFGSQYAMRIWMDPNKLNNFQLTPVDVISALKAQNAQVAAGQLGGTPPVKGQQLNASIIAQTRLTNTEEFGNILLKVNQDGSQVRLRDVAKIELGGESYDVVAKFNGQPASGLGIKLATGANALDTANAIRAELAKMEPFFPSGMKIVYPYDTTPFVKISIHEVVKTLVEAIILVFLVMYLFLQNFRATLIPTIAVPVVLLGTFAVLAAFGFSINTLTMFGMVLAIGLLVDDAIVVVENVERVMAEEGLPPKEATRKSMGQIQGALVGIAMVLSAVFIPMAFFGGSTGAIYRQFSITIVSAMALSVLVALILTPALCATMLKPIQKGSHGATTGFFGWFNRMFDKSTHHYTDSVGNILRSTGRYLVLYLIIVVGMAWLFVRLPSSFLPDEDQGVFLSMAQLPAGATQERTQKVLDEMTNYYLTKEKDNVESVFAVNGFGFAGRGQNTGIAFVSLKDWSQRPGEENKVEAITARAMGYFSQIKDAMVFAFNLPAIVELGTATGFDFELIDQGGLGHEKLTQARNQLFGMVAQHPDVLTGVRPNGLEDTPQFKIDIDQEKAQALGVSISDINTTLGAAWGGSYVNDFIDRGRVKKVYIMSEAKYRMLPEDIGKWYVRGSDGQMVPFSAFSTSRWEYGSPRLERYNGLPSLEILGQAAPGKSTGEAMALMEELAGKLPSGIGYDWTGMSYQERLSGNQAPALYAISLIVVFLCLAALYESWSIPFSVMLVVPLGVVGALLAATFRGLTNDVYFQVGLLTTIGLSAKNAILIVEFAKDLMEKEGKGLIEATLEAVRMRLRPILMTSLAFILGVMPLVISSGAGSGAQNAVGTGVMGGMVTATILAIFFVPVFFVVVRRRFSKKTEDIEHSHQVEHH

| SMILES | Minimum Inhibitory Concentration ([1]; + 100 µM 1') | Minimum Inhibitory Concentration ([1]; + 100 µM 5) | Minimum Inhibitory Concentration ([1]; + 100 µM PAβN) | MIC ([1]; Klebsiella pneumoniae, ATCC43816, No EPI, read-out: Minimum Inhibitory Concentration) | Ki [2] | CC50 at 24 h [3] |
| --- | --- | --- | --- | --- | --- | --- |
| C[C@H]1COc2c(N3CCN(C)CC3)c(F)cc3c(=O)c(C(=O)O)cn1c23 [Levofloxacin] | 0.01^# mg/L | 0.01^# mg/L | 0.02^# mg/L | 0.04 µg/mL |  |  |
| Clc1cc2cc(N3CCNCC3)ccc2nc1N1CCNCC1 [compound 5] |  |  |  |  | ~20 µM | 48 µM |
